Data from patent US20220386606A1, “SPECIFICALLY SUBSTITUTED 3-PHENYL-5-SPIROCYCLOPENTYL-3-PYRROLIN-2-ONES AND THEIR USE AS HERBICIDES” (Bayer Aktiengesellschaft, priority 2019, published 2022).

Experiments:
[1] = system: ALOMY; assay: Pre-emergence herbicidal action against ALOMY; format: in vivo, Alopecurus myosuroides; settings: 320 g/ha, scored visually after 3 weeks vs untreated controls
From the text: (§1) Seeds of monocotyledonous and dicotyledonous weed plants and crop plants are laid out in sandy loam soil in wood-fiber pots and covered with soil. The compounds of the invention, formulated in the form of wettable powders (WP) or as emulsion concentrates (EC), are then applied to the surface of the covering soil as aqueous suspension or emulsion at a water application rate equating to 600 to 800 L/ha with addition of 0.2% wetting agent.
(§2) After the treatment, the pots are placed in a greenhouse and kept under good growth conditions for the trial plants. The damage to the test plants is scored visually after a test period of 3 weeks by comparison with untreated controls (herbicidal activity in percent (%): 100% activity=the plants have died, 0% activity=like control plants).

[2] = system: DIGSA; assay: Pre-emergence herbicidal action against DIGSA; format: in vivo, Digitaria sanguinalis; settings: 320 g/ha, scored visually after 3 weeks vs untreated controls
From the text: as §1, §2

[3] = system: ECHCG; assay: Pre-emergence herbicidal action against ECHCG; format: in vivo, Echinochloa crus-galli; settings: 320 g/ha, scored visually after 3 weeks vs untreated controls
From the text: as §1, §2

[4] = system: LOLRI; assay: Pre-emergence herbicidal action against LOLRI (Table 8, titled post-emergence at 320 g/ha); format: in vivo, Lolium rigidum; settings: table stands in the pre-emergence section
From the text: as §1, §2

[5] = system: SETVI; assay: Pre-emergence herbicidal action against SETVI; format: in vivo, Setaria viridis; settings: 320 g/ha, scored visually after 3 weeks vs untreated controls
From the text: as §1, §2

[6] = system: VIOTR; assay: Pre-emergence herbicidal action against VIOTR; format: in vivo, Viola tricolor; settings: 320 g/ha
From the text: as §1, §2

[7] = system: ALOMY; assay: Post-emergence herbicidal action against ALOMY; format: in vivo, Alopecurus myosuroides; settings: 80 g/ha, visual assessment after about 3 weeks
Protocol: (§3) Seeds of monocotyledonous and dicotyledonous weed and crop plants are laid out in sandy loam soil in wood-fiber pots, covered with soil and cultivated in a greenhouse under good growth conditions. 2 to 3 weeks after sowing, the test plants are treated at the one-leaf stage. The compounds of the invention, formulated in the form of wettable powders (WP) or as emulsion concentrates (EC), are then sprayed onto the green parts of the plants as aqueous suspension or emulsion at a water application rate equating to 600 to 800 l/ha with addition of 0.2% wetting agent. After the test plants have been left to stand in the greenhouse under optimal growth conditions for about 3 weeks, the action of the preparations is assessed visually in comparison to untreated controls (herbicidal action in percent (%): 100% activity=the plants have died, 0% activity=like control plants).

[8] = system: AVEFA; assay: Post-emergence herbicidal action against AVEFA; format: in vivo, Avena fatua; settings: 80 g/ha, visual assessment after about 3 weeks
Protocol: as §3

[9] = system: DIGSA; assay: Post-emergence herbicidal action against DIGSA; format: in vivo, Digitaria sanguinalis; settings: 80 g/ha, visual assessment about 3 weeks after treatment vs untreated controls
Protocol: as §3

[10] = system: ECHCG; assay: Post-emergence herbicidal action against ECHCG; format: in vivo, Echinochloa crus-galli; settings: 80 g/ha, visual assessment about 3 weeks after treatment vs untreated controls
Protocol: as §3

[11] = system: LOLRI; assay: Post-emergence herbicidal action against LOLRI; format: in vivo, Lolium rigidum; settings: 80 g/ha, visual assessment about 3 weeks after treatment vs untreated controls
Protocol: as §3

[12] = system: SETVI; assay: Post-emergence herbicidal action against SETVI; format: in vivo, Setaria viridis; settings: 80 g/ha, visual assessment about 3 weeks after treatment vs untreated controls
Protocol: as §3

[13] = system: AVEFA; assay: Pre-emergence herbicidal action against AVEFA; format: in vivo, Avena fatua; settings: 320 g/ha, scored visually after 3 weeks vs untreated controls
From the text: as §1, §2

[14] = system: AMARE; assay: Pre-emergence herbicidal action against AMARE; format: in vivo, Amaranthus retroflexus; settings: 320 g/ha
From the text: as §1, §2

Row | SMILES | Pre-emergence action against ALOMY in % [1] [%] | Pre-emergence action against DIGSA in % [2] [%] | Pre-emergence action against ECHCG in % [3] [%] | Pre-emergence herbicidal action against LOLRI in % [4] [%] | Pre-emergence action against SETVI in % [5] [%] | Pre-emergence action against VIOTR in % [6] [%] | Post-emergence action against ALOMY in % [7] [%] | Post-emergence action against AVEFA in % [8] [%] | Post-emergence action against DIGSA in % [9] [%] | Post-emergence action against ECHCG in % [10] [%] | Post-emergence action against LOLRI in % [11] [%] | Post-emergence action against SETVI in % [12] [%] | Pre-emergence action against AVEFA in % [13] [%] | Pre-emergence action against AMARE in % [14] [%]
1 | C#CCOCC1CCC2(C1)NC(=O)C(c1c(C)cc(C#CC)cc1OC)=C2O (stereo not shown) [Example I-76] | 100 | 100 | 100 | 100 | 100 | 90 | 90 | 90 | 90 | 100 | 90 | 100 |  | 
2 | C#CCOCC1CCC2(C1)NC(=O)C(c1c(F)cc(C#CC)cc1OC)=C2OC(=O)OCC (stereo not shown) [Example P-102] | 100 | 100 | 100 | 100 | 100 |  | 90 | 80 | 90 | 80 | 90 | 90 | 80 | 90
3 | CC#Cc1cc(C)c(C2=C(OC(=O)OCC)C3(CCC(COC)C3)NC2=O)c(OC)c1 (stereo not shown) [Example P-47] | 100 | 100 | 100 |  | 100 | 100 | 100 | 90 | 100 | 100 | 100 | 100 | 100 | 100
4 | CC#Cc1cc(F)c(C2=C(OC(=O)OCC)C3(CCC(COC)C3)NC2=O)c(OC)c1 (stereo not shown) [Example P-63] | 100 | 100 | 90 | 100 | 100 |  | 100 | 80 | 100 | 100 | 100 | 100 | 90 | 
5 | C#CCOCC1CCC2(C1)NC(=O)C(c1c(F)cc(C#CC)cc1OC)=C2O (stereo not shown) [Example I-74] | 100 | 100 | 100 | 100 | 100 |  | 90 | 80 | 90 | 100 | 90 | 100 | 90 | 
6 | CC#Cc1cc(C)c(C2=C(O)C3(CCC(COCC)C3)NC2=O)c(Br)c1 (stereo not shown) [Example I-20] | 100 | 100 | 100 | 100 | 100 | 100 | 100 |  | 90 | 100 | 100 | 100 | 100 | 
7 | CC#Cc1cc(Br)c(C2=C(O)C3(CCC(COCC)C3)NC2=O)c(OCC)c1 (stereo not shown) [Example I-64] | 100 | 100 | 100 | 100 | 100 |  | 90 | 80 | 80 | 100 | 90 | 100 | 80 | 
8 | CC#Cc1cc(Br)c(C2=C(OC(=O)C(C)C)C3(CCC(COCC)C3)NC2=O)c(CC)c1 (stereo not shown) [Example P-43] |  |  |  |  |  | 100 |  |  |  |  |  |  |  | 
9 | C#CCOCC1CCC2(C1)NC(=O)C(c1c(F)cc(C#CC)cc1OC)=C2OC(=O)OCC (stereo not shown) [Example P-104] | 100 | 100 | 100 | 100 | 100 |  | 100 | 90 | 90 | 100 |  | 100 |  | 100
10 | C=CCOCC1CCC2(C1)NC(=O)C(c1c(F)cc(C#CC)cc1OC)=C2O (stereo not shown) [Example I-55] | 100 | 100 | 100 | 100 | 100 |  | 100 | 90 |  | 100 |  | 100 |  | 80
11 | CC#Cc1cc(C)c(C2=C(O)C3(CCC(COC)C3)NC2=O)c(OC)c1 (stereo not shown) [Example I-33] | 100 | 100 |  | 100 | 100 | 100 | 100 | 100 | 100 | 100 | 100 | 100 | 80 | 
12 | CC#Cc1cc(C)c(C2=C(OC(=O)C(C)C)C3(CCC(COCC)C3)NC2=O)c(F)c1 (stereo not shown) [Example P-59] | 100 | 100 | 100 | 100 | 100 | 100 | 100 | 90 | 100 | 100 | 100 | 100 | 100 | 
13 | CC#Cc1cc(F)c(C2=C(OC(=O)C(C)C)C3(CCC(COC)C3)NC2=O)c(OC)c1 (stereo not shown) [Example P-65] | 100 | 100 | 100 | 100 | 100 | 80 | 90 | 90 | 100 | 90 | 100 | 100 | 100 | 
14 | C=CCOCC1CCC2(C1)NC(=O)C(c1c(C)cc(C#CC)cc1OC)=C2O (stereo not shown) [Example I-45] | 80 | 100 | 100 | 100 | 100 | 80 | 90 | 80 | 90 | 100 |  | 100 |  | 
